# Reference: ChEMBL document CHEMBL5058564, “EUbOPEN Chemogenomics Library 2 (Incucyte)” (2022)
# Where a SMILES comes first, the peptide text is derived from it. [ ]: non-standard residue; d: D form.
# Key:
# Format in all cases: toxicity, cell-based
# U2OS = assay: Incucyte cell viability with U2OS; settings: human, 10 µM, compound concentration 10 uM
# Fibroblast = assay: Incucyte cell viability with human fibroblast; settings: 10 µM, compound concentration 10 uM
# HEK-293T = assay: Incucyte cell viability with HEK293T; settings: human, 10 µM, compound concentration 10 uM
# [1] = 0 h, replicate number 2, timepoint 0 hours
# [2] = 6 h, replicate number 1, timepoint 6 hours
# [3] = 6 h, replicate number 2, timepoint 6 hours
# [4] = 12 h, replicate number 1, timepoint 12 hours
# [5] = 12 h, replicate number 2, timepoint 12 hours
# [6] = 18 h, replicate number 1, timepoint 18 hours
# [7] = 18 h, replicate number 2, timepoint 18 hours
# [8] = 24 h, replicate number 1, timepoint 24 hours
# [9] = 24 h, replicate number 2, timepoint 24 hours
# [10] = 0 h, replicate number 1, timepoint 0 hours
# Also: unitless GR value; below 1 slowed growth and below 0 cell loss.
compound,measurement,setting,value
O=C1NC(=Nc2c(Cl)cccc2Cl)S/C1=C\c1ccc2nccnc2c1,Growth Rate,U2OS; [1],-0.91
same,Growth Rate,U2OS; [2],0
same,Growth Rate,U2OS; [3],0.81
same,Growth Rate,U2OS; [4],0.33
same,Growth Rate,U2OS; [5],0.54
same,Growth Rate,U2OS; [6],0.55
same,Growth Rate,U2OS; [7],0.57
same,Growth Rate,U2OS; [8],0.63
same,Growth Rate,U2OS; [9],0.59
same,Growth Rate,Fibroblast; [10],0.9
same,Growth Rate,Fibroblast; [1],0.72
same,Growth Rate,Fibroblast; [2],0.24
same,Growth Rate,Fibroblast; [3],0.79
same,Growth Rate,Fibroblast; [4],0.09
same,Growth Rate,Fibroblast; [5],0.32
same,Growth Rate,Fibroblast; [6],0.4
same,Growth Rate,Fibroblast; [7],0.61
same,Growth Rate,Fibroblast; [8],0.39
same,Growth Rate,Fibroblast; [9],0.48
same,Growth Rate,HEK-293T; [10],0.36
same,Growth Rate,HEK-293T; [1],0.37
same,Growth Rate,HEK-293T; [2],0.34
same,Growth Rate,HEK-293T; [3],0.18
same,Growth Rate,HEK-293T; [4],0.15
same,Growth Rate,HEK-293T; [5],-0.06
same,Growth Rate,HEK-293T; [6],0.07
same,Growth Rate,HEK-293T; [7],0.05
same,Growth Rate,HEK-293T; [8],0.26
same,Growth Rate,HEK-293T; [9],0.15
Cc1nc[nH]c1CCN.Cl,Growth Rate,U2OS; [10],-0.24
same,Growth Rate,U2OS; [1],-1
same,Growth Rate,U2OS; [6],0.91
same,Growth Rate,Fibroblast; [10],0.7
same,Growth Rate,Fibroblast; [3],0.14
same,Growth Rate,Fibroblast; [5],0.83
same,Growth Rate,Fibroblast; [7],0.58
same,Growth Rate,Fibroblast; [9],0.86
same,Growth Rate,HEK-293T; [10],0.42
same,Growth Rate,HEK-293T; [1],0.64
same,Growth Rate,HEK-293T; [4],0.91
same,Growth Rate,HEK-293T; [6],0.92
same,Growth Rate,HEK-293T; [8],0.81
O=C([O-])[C@H]1O[C@H](OP(=O)([O-])OP(=O)([O-])OC[C@H]2O[C@@H](n3ccc(=O)[nH]c3=O)[C@H](O)[C@@H]2O)[C@H](O)[C@@H](O)[C@@H]1O.[Na+].[Na+].[Na+],Growth Rate,U2OS; [10],0.32
same,Growth Rate,U2OS; [1],0.71
same,Growth Rate,U2OS; [2],0.46
same,Growth Rate,U2OS; [4],0.9
same,Growth Rate,U2OS; [6],0.9
same,Growth Rate,Fibroblast; [1],0.57
same,Growth Rate,Fibroblast; [6],0.88
same,Growth Rate,Fibroblast; [8],0.93
same,Growth Rate,HEK-293T; [10],0.81
same,Growth Rate,HEK-293T; [1],-0.02
same,Growth Rate,HEK-293T; [2],0.43
same,Growth Rate,HEK-293T; [4],0.65
same,Growth Rate,HEK-293T; [6],0.64
same,Growth Rate,HEK-293T; [8],0.84
same,Growth Rate,HEK-293T; [9],0.91
CN1[C@@H]2CC[C@H]1C[C@@H](OC(=O)C(CO)c1ccccc1)C2 (stereo partly drawn) [ATROPINE],Growth Rate,U2OS; [2],0.86
same,Growth Rate,U2OS; [4],0.79
same,Growth Rate,U2OS; [5],0.96
same,Growth Rate,U2OS; [7],0.95
same,Growth Rate,Fibroblast; [10],-0.04
same,Growth Rate,Fibroblast; [1],-0.32
same,Growth Rate,Fibroblast; [7],0.91
same,Growth Rate,HEK-293T; [2],0.9
same,Growth Rate,HEK-293T; [3],0.19
same,Growth Rate,HEK-293T; [4],0.68
same,Growth Rate,HEK-293T; [5],0.53
same,Growth Rate,HEK-293T; [6],0.6
same,Growth Rate,HEK-293T; [7],0.65
same,Growth Rate,HEK-293T; [8],0.44
same,Growth Rate,HEK-293T; [9],0.6
O=C(O)CCCCCC[C@H]1C(=O)NC(=O)N1CCC(O)C1CCCCC1 (stereo partly drawn),Growth Rate,U2OS; [10],-0.44
same,Growth Rate,U2OS; [2],0.65
same,Growth Rate,U2OS; [6],0.81
same,Growth Rate,Fibroblast; [10],0.25
same,Growth Rate,Fibroblast; [1],0.26
same,Growth Rate,Fibroblast; [5],0.91
same,Growth Rate,HEK-293T; [1],0.31
same,Growth Rate,HEK-293T; [2],0.84
same,Growth Rate,HEK-293T; [3],0.93
same,Growth Rate,HEK-293T; [4],0.73
same,Growth Rate,HEK-293T; [5],0.68
same,Growth Rate,HEK-293T; [6],0.88
same,Growth Rate,HEK-293T; [7],0.81
same,Growth Rate,HEK-293T; [8],0.91
CC(C)C[C@@H]1NC(=O)[C@@H](C(C)C)NC(=O)[C@@H]2CCCN2C(=O)[C@@H](CC(=O)O)NC(=O)[C@@H](Cc2c[nH]c3ccccc23)NC1=O [BQ-123] (cyclo(L[dW][dD]P[dV])),Growth Rate,U2OS; [1],-1
same,Growth Rate,U2OS; [2],0.51
same,Growth Rate,U2OS; [3],0.68
same,Growth Rate,U2OS; [4],0.65
same,Growth Rate,U2OS; [6],0.49
same,Growth Rate,U2OS; [8],0.93
same,Growth Rate,Fibroblast; [10],0.41
same,Growth Rate,Fibroblast; [1],0.34
same,Growth Rate,Fibroblast; [2],0.81
same,Growth Rate,Fibroblast; [3],0.18
same,Growth Rate,Fibroblast; [4],0.87
same,Growth Rate,Fibroblast; [5],0.89
same,Growth Rate,Fibroblast; [6],0.98
same,Growth Rate,Fibroblast; [7],0.94
same,Growth Rate,HEK-293T; [1],0.79
same,Growth Rate,HEK-293T; [2],0.89
same,Growth Rate,HEK-293T; [4],0.92
same,Growth Rate,HEK-293T; [6],0.91
same,Growth Rate,HEK-293T; [8],0.97
CC(C)Oc1ccc(-c2c[nH]cc2CN(C)CCO)cc1,Growth Rate,U2OS; [10],-0.46
same,Growth Rate,U2OS; [1],0.69
same,Growth Rate,U2OS; [2],0.97
same,Growth Rate,U2OS; [4],0.45
same,Growth Rate,U2OS; [6],0.71
same,Growth Rate,U2OS; [8],0.94
same,Growth Rate,Fibroblast; [10],0.53
same,Growth Rate,Fibroblast; [1],0.41
same,Growth Rate,HEK-293T; [10],0.59
same,Growth Rate,HEK-293T; [1],0.6
same,Growth Rate,HEK-293T; [8],1
CN[C@@H](C)C(=O)N[C@H](C(=O)N1CCC[C@H]1C(=O)Nc1snnc1-c1ccccc1)C1CCCCC1 [GDC-0152],Growth Rate,U2OS; [10],-0.64
same,Growth Rate,U2OS; [1],0.74
same,Growth Rate,U2OS; [2],0.5
same,Growth Rate,U2OS; [4],0.49
same,Growth Rate,U2OS; [6],0.87
same,Growth Rate,Fibroblast; [10],0.95
same,Growth Rate,Fibroblast; [1],0.59
same,Growth Rate,Fibroblast; [2],-0.81
same,Growth Rate,Fibroblast; [3],-0.33
same,Growth Rate,Fibroblast; [4],-0.63
same,Growth Rate,Fibroblast; [5],-0.17
same,Growth Rate,Fibroblast; [6],-0.58
same,Growth Rate,Fibroblast; [7],-0.22
same,Growth Rate,Fibroblast; [8],-0.44
same,Growth Rate,Fibroblast; [9],-0.21
same,Growth Rate,HEK-293T; [10],0.68
same,Growth Rate,HEK-293T; [1],0.53
same,Growth Rate,HEK-293T; [2],0.43
same,Growth Rate,HEK-293T; [4],0.37
same,Growth Rate,HEK-293T; [5],0.71
same,Growth Rate,HEK-293T; [6],0.36
same,Growth Rate,HEK-293T; [7],0.66
same,Growth Rate,HEK-293T; [8],0.4
same,Growth Rate,HEK-293T; [9],0.52
CCOc1nc2cccc(C(=O)O)c2n1Cc1ccc(-c2ccccc2-c2nnn[nH]2)cc1,Growth Rate,U2OS; [4],0.85
same,Growth Rate,U2OS; [5],0.99
same,Growth Rate,U2OS; [6],0.58
same,Growth Rate,Fibroblast; [1],0.54
same,Growth Rate,Fibroblast; [2],0.77
same,Growth Rate,Fibroblast; [3],0.71
same,Growth Rate,Fibroblast; [5],0.56
same,Growth Rate,Fibroblast; [6],0.8
same,Growth Rate,Fibroblast; [8],0.89
same,Growth Rate,Fibroblast; [9],0.45
same,Growth Rate,HEK-293T; [10],0.86
same,Growth Rate,HEK-293T; [1],0.52
same,Growth Rate,HEK-293T; [3],0.94
Cc1ccccc1C#Cc1ccc(CCC(=O)O)cc1,Growth Rate,U2OS; [10],0.25
same,Growth Rate,U2OS; [2],0.52
same,Growth Rate,U2OS; [3],0.9
same,Growth Rate,U2OS; [4],0.67
same,Growth Rate,U2OS; [6],0.7
same,Growth Rate,U2OS; [7],0.92
same,Growth Rate,U2OS; [8],0.77
same,Growth Rate,Fibroblast; [10],0.45
same,Growth Rate,Fibroblast; [1],0.93
same,Growth Rate,Fibroblast; [3],0.07
same,Growth Rate,Fibroblast; [5],0.32
same,Growth Rate,Fibroblast; [7],0.35
same,Growth Rate,Fibroblast; [9],0.31
same,Growth Rate,HEK-293T; [1],0.37
same,Growth Rate,HEK-293T; [2],0.63
same,Growth Rate,HEK-293T; [3],0.81
same,Growth Rate,HEK-293T; [4],0.72
same,Growth Rate,HEK-293T; [5],0.75
same,Growth Rate,HEK-293T; [6],0.73
same,Growth Rate,HEK-293T; [7],0.67
same,Growth Rate,HEK-293T; [8],0.74
same,Growth Rate,HEK-293T; [9],0.62
COc1ccncc1C(=O)NC(=O)Nc1ccc(-c2ccccc2)c(C(F)(F)F)c1,Growth Rate,U2OS; [3],0.74
same,Growth Rate,U2OS; [7],0.94
same,Growth Rate,U2OS; [9],1
same,Growth Rate,Fibroblast; [10],0.48
same,Growth Rate,Fibroblast; [1],0.72
same,Growth Rate,Fibroblast; [2],-0.12
same,Growth Rate,Fibroblast; [3],0.15
same,Growth Rate,Fibroblast; [4],0.58
same,Growth Rate,Fibroblast; [6],0.7
same,Growth Rate,Fibroblast; [8],0.92
same,Growth Rate,HEK-293T; [2],0.25
same,Growth Rate,HEK-293T; [3],0.96
same,Growth Rate,HEK-293T; [4],0.48
same,Growth Rate,HEK-293T; [5],0.74
same,Growth Rate,HEK-293T; [6],0.58
same,Growth Rate,HEK-293T; [7],0.86
same,Growth Rate,HEK-293T; [8],0.69
C[C@@H]1CN(Cc2ccc(F)cc2)CCN1C(=O)COc1ccc(Cl)cc1NC(N)=O [BX 471 FREE BASE],Growth Rate,U2OS; [10],-0.96
same,Growth Rate,U2OS; [1],-1
same,Growth Rate,U2OS; [3],0.94
same,Growth Rate,U2OS; [5],0.91
same,Growth Rate,U2OS; [7],0.79
same,Growth Rate,U2OS; [9],0.89
same,Growth Rate,Fibroblast; [10],0.82
same,Growth Rate,Fibroblast; [1],0.24
same,Growth Rate,Fibroblast; [2],-0.16
same,Growth Rate,Fibroblast; [3],0.36
same,Growth Rate,Fibroblast; [4],-0.14
same,Growth Rate,Fibroblast; [5],0.49
same,Growth Rate,Fibroblast; [6],-0.19
same,Growth Rate,Fibroblast; [7],0.85
same,Growth Rate,Fibroblast; [8],-0.14
same,Growth Rate,Fibroblast; [9],0.72
same,Growth Rate,HEK-293T; [2],-0.13
same,Growth Rate,HEK-293T; [3],0.4
same,Growth Rate,HEK-293T; [4],-0.03
same,Growth Rate,HEK-293T; [5],0.27
same,Growth Rate,HEK-293T; [6],0.11
same,Growth Rate,HEK-293T; [7],0.4
same,Growth Rate,HEK-293T; [8],0.18
same,Growth Rate,HEK-293T; [9],0.33
CN[C@@H]1C[C@H]2O[C@@](C)([C@@H]1OC)n1c3ccccc3c3c4c(c5c6ccccc6n2c5c31)C(=O)NC4 [STAUROSPORINE],Growth Rate,U2OS; [6],0.79
same,Growth Rate,U2OS; [7],0.69
same,Growth Rate,U2OS; [8],0.65
same,Growth Rate,U2OS; [9],0.49
same,Growth Rate,Fibroblast; [10],0.05
same,Growth Rate,Fibroblast; [1],-0.7
same,Growth Rate,Fibroblast; [4],0.41
same,Growth Rate,Fibroblast; [6],0
same,Growth Rate,Fibroblast; [7],0.61
same,Growth Rate,Fibroblast; [8],-0.13
same,Growth Rate,Fibroblast; [9],0.35
same,Growth Rate,HEK-293T; [10],-0.75
same,Growth Rate,HEK-293T; [1],-0.46
same,Growth Rate,HEK-293T; [6],0.33
same,Growth Rate,HEK-293T; [7],0.42
same,Growth Rate,HEK-293T; [8],0.11
same,Growth Rate,HEK-293T; [9],0.09
